Data: publication PMC8309051, “Structure–Activity Relationship and Molecular Docking of a Kunitz-Like Trypsin Inhibitor, Kunitzin-AH, from the Skin Secretion of Amolops hainanensis” (Pharmaceutics, 2021)
Read-outs that look alike come from different tables or passages of the source. Where a SMILES comes first, the peptide text is derived from it. Bridges are numbered along the chain shown (N, C = ends).

Key:
bovine trypsin = molecular target: T1, bovine trypsin (Bos taurus, UniProt P00760); test: Trypsin inhibition assay (kinetic, substrate Phe-Pro-Arg-AMC); type: biochemical
T1 sequence (P00760 24-246): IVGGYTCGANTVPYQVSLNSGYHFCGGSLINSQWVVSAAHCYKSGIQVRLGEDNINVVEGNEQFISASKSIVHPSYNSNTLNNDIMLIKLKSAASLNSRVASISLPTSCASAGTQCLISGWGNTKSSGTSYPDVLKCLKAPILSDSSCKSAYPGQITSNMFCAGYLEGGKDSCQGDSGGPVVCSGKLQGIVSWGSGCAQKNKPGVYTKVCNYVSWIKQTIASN
Method: The kinetic enzyme assay was performed as described in the previous study. Substrate Phe-Pro-Arg-AMC was employed for investigating the hydrolysis of bovine trypsin. Trypsin working solution (10 µL trypsin stock solution (0.1 µM) + 9.99 mL HCl (1 mM)) and trypsin substrate working solution (50 µL substrate stock solution (Phe-Pro-Arg-AMC) (10 mM) + 9.95 mL PBS) were prepared prior to use. Trypsin inhibition assay contained three groups, namely positive control (20 µL PBS, 180 µL substrate working solution, 10 µL trypsin working solution), blank control (20 µL PBS + 10 µL HCl (1 mM) + 180 µL substrate working solution) and peptide group (20 µL peptide solution with the concentration ranging from 10 to 1000 µM, 180 µL substrate working solution, 10 µL trypsin working solution). The fluorescent strength released from hydrolysis of the substrate was monitored at 37 °C at the wavelength of 460 nm (excitation at 360 nm) in a POLARstar Omega Microplate Reader (B.M.G. Labtech, Offenburg, German). Each concentration of the sample was carried out in triplicate and repeated at least three times.
Peptide concentration ( μM)
Figure S3. The progress curve of inhibition rate in the presence of different concentrations of pep-tides (a) Kunitzin-AH; (b) AH-1363; (c) AH-unoxidized; (d) AH-1447; (e) AH-798; (f) AH-880-I; (g) […]
The Y-axis represented the rate of the fluorescence decay, while the X-axis represented peptide concentrations in µM. The Ki values were calculated by Morrison formula in Prism 6, in […]
Error bars represent standard error of mean
(SEM) of three replicates. […]

horse erythrocytes = test: Hemolytic activity assay; type: cell-based; settings: for Hemolysis: 2% horse erythrocytes suspension, 37 °C, two hours
Method: Hemolysis assay was conducted through the incubation of peptides and 2% horse erythrocytes suspension (T.C.S. Biosciences Ltd. Buckingham, UK) at 37 °C for two hours as detailed in the previous study. Afterwards, the positive control (considered as 100% hemolysis of cells) was conducted with 1% Triton X-100 (Sigma, Dorset, UK), while the negative control (0%) was treated with phosphate-buffered saline (PBS). The absorbance values were subsequently measured with a Synergy H.T. plate reader (BioTech, Minneapolis, MN, USA) and calculated by using Gen 5 software at a wavelength of 550 nm.

[1] = Morrison formula, three independent experiments, 37 °C, read-out: Ki Value

| Compound | Ki (bovine trypsin; [1]) | Hemolysis (horse erythrocytes) | Ki (bovine trypsin) | hemolytic activity (in words) (horse erythrocytes; normal horse erythrocytes) |
| --- | --- | --- | --- | --- |
| CC[C@H](C)[C@@H]1NC(=O)[C@H](CCCCN)NC(=O)[C@@H](NC(=O)[C@@H](N)CCCNC(=N)N)CSSC[C@@H](C(=O)O)NC(=O)[C@H](Cc2ccccc2)NC(=O)[C@H]([C@@H](C)CC)NC1=O [AH-880-I, RCKIIFC] (H-RCKIIFC-OH; disulfide 2-7) | 16.1 ± 1.2 µM | >512 µM |  |  |
| N=C(N)NCCC[C@H](N)C(=O)N[C@H]1CSSC[C@@H](C(=O)O)NC(=O)[C@H](Cc2ccccc2)NC(=O)[C@H](CC(N)=O)NC(=O)[C@H](CC(N)=O)NC(=O)[C@H](CCCCN)NC1=O [AH-884, RCKNNFC] (H-RCKNNFC-OH; disulfide 2-7) | 133 ± 4.1 µM | >512 µM |  |  |
| CC(C)[C@H](NC(=O)[C@H](C)N)C(=O)N[C@@H](CCCNC(=N)N)C(=O)N1CCC[C@H]1C(=O)N1CCC[C@H]1C(=O)N[C@@H](Cc1ccccc1)C(=O)N[C@@H](CCCNC(=N)N)C(=O)N[C@@H](CS)C(=O)N[C@@H](CCCCN)C(=O)N[C@@H](C)C(=O)N[C@@H](C)C(=O)N[C@@H](Cc1ccccc1)C(=O)N[C@@H](CS)C(=O)O [AH-unoxidized, AVRPPFRCKAAFC] (H-AVRPPFRCKAAFC-OH) |  | >512 µM | 59.9 ± 2.82 µM |  |
| C[C@@H]1NC(=O)[C@H](C)NC(=O)[C@H](CCCCN)NC(=O)[C@@H](NC(=O)[C@@H](N)CCCNC(=N)N)CSSC[C@@H](C(=O)O)NC(=O)[C@H](Cc2ccccc2)NC1=O [AH-798, RCKAAFC] (H-RCKAAFC-OH; disulfide 2-7) | 1.76 ± 0.13 µM | >512 µM |  |  |
| CC(C)[C@H](NC(=O)[C@H](C)N)C(=O)N[C@@H](CCCNC(=N)N)C(=O)N1CCC[C@H]1C(=O)N1CCC[C@H]1C(=O)N[C@@H](Cc1ccccc1)C(=O)N[C@@H](CCCNC(=N)N)C(=O)N[C@H]1CSSC[C@@H](C(=O)O)NC(=O)[C@H](CCCCN)NC(=O)[C@H](C)NC(=O)[C@H](C)NC(=O)[C@H](CCCCN)NC1=O [AH-1447, AVRPPFRCKAAKC] (H-AVRPPFRCKAAKC-OH; disulfide 8-13) |  | >512 µM | 349.2 ± 0.93 µM |  |
| CC(C)[C@H](NC(=O)[C@H](C)N)C(=O)N[C@@H](CCCNC(=N)N)C(=O)N1CCC[C@H]1C(=O)N1CCC[C@H]1C(=O)N[C@@H](Cc1ccccc1)C(=O)N[C@@H](CCCNC(=N)N)C(=O)N[C@H]1CSSC[C@@H](C(=O)O)NC(=O)[C@H](Cc2ccccc2)NC(=O)[C@H](C)NC(=O)[C@H](C)NC(=O)[C@H](CCCCN)NC1=O [Kunitzin-AH, AVRPPFRCKAAFC] (H-AVRPPFRCKAAFC-OH; disulfide 8-13) |  | >512 µM | 1.18 ± 0.08 µM | without inducing damage to healthy horse erythrocytes |
| CC(C)[C@H](NC(=O)[C@H](C)N)C(=O)N[C@@H](CCCNC(=N)N)C(=O)N1CCC[C@H]1C(=O)N1CCC[C@H]1C(=O)N[C@@H](Cc1ccccc1)C(=O)N[C@@H](CCCNC(=N)N)C(=O)N[C@@H](CS)C(=O)N[C@@H](CCCCN)C(=O)N[C@@H](C)C(=O)N[C@@H](C)C(=O)N[C@@H](Cc1ccccc1)C(=O)O [AH-1363, AVRPPFRCKAAF] (H-AVRPPFRCKAAF-OH; N-terminus and C-terminus assumed) |  | >512 µM | 96.9 ± 1.2 µM |  |
